In data set [1] the target is T1, CCR3 (Homo sapiens, UniProt P51677).
T1 sequence (P51677 1-355): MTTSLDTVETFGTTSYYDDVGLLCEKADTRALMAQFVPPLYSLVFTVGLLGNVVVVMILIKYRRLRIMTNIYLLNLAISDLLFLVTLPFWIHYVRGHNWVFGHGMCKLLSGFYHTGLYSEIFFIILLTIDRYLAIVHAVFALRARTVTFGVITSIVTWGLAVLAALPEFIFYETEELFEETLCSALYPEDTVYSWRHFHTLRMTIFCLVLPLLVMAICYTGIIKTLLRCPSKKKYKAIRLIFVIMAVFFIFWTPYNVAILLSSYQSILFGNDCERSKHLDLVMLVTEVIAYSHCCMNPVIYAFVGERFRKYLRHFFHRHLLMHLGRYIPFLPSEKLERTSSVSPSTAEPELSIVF
Briefly: CCR3 receptor binding assay ([125I]-labeled human eotaxin/CCL11 displacement on cells). The conditions noted are these: 0.1 nM [125I]-labeled human eotaxin/CCL11, 2×10^5 cells/well, 60 min at room temperature. The method, boiled down:
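Cells (2×10^5/well) incubated 60 min at room temperature with 0.1 nM [125I]-human eotaxin/CCL11 in 25 mM HEPES pH 7.6, MgCl2, CaCl2, 0.5% BSA. Bound radioactivity counted after filtration and 0.5 M NaCl washes. Non-specific binding defined with 500 nM unlabeled eotaxin.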

Where only a bound is given, the exact number is not on record here.

Turning to `O=C(c1ccco1)N1CCN(S(=O)(=O)c2cc([N+](=O)[O-])ccc2Sc2cc(Cl)ccc2Cl)CC1` [Compound 166, (4-(2-(2,5-Dichlorophenylthio)-5-nitrophenylsulfonyl)piperazin-1-yl)(furan-2-yl)methanone], the melting point lay in the range of 199 to 202 °C. The compound `Cc1ccc(C)c(Sc2ccc([N+](=O)[O-])cc2S(=O)(=O)N2CCN(C(=O)c3ccccc3)CC2)c1` [Compound 172, (4-(2-(2,5-Dimethylphenylthio)-5-nitrophenylsulfonyl)piperazin-1-yl)(phenyl)methanone] came in with a melting point of 190 to 193 °C. Further, in data set [1], the Ki is more than 5 µM. The like results for `O=C(c1ccccc1)N1CCN(S(=O)(=O)c2cc([N+](=O)[O-])ccc2Oc2cc(Cl)ccc2Cl)CC1` [Compound 182, (4-(2-(2,5-Dichlorophenoxy)-5-nitrophenylsulfonyl)piperazin-1-yl)(phenyl)methanone] were, in that order, 206 to 209 °C and more than 5 µM. As for `O=C(c1ccco1)N1CCN(S(=O)(=O)c2cc([N+](=O)[O-])ccc2Oc2cc(Cl)ccc2Cl)CC1` [Compound 185, (4-(2-(2,5-Dichlorophenoxy)-5-nitrophenylsulfonyl)piperazin-1-yl)(furan-2-yl)methanone], in data set [1], the Ki was more than 5 µM. On the same count and under the same terms, the figure for `COc1ccc(C(=O)N2CCN(S(=O)(=O)c3cc([N+](=O)[O-])ccc3Oc3cc(C)ccc3C)CC2)cc1` [Compound 189, (4-(2-(2,5-Dimethylphenoxy)-5-nitrophenylsulfonyl)piperazin-1-yl)(4-methoxyphenyl)methanone] is more than 5 µM. On the same count and under the same terms, with `Cc1ccc(C)c(Oc2ccc([N+](=O)[O-])cc2S(=O)(=O)N2CCN(C(=O)c3ccco3)CC2)c1` [Compound 190, (4-(2-(2,5-Dimethylphenoxy)-5-nitrophenylsulfonyl)piperazin-1-yl)(furan-2-yl)methanone] the figure was more than 5 µM; with `C=CCNC(=O)N1CCN(S(=O)(=O)c2cc([N+](=O)[O-])ccc2Sc2cc(Cl)ccc2Cl)CC1` [Compound 191, N-Allyl-4-(2-(2,5-dichlorophenylthio)-5-nitrophenylsulfonyl)piperazine-1-carboxamide], not above 0.05 µM; with `Cc1ccc(NC(=O)N2CCN(S(=O)(=O)c3cc([N+](=O)[O-])ccc3Sc3cc(Cl)ccc3Cl)CC2)cc1` [Compound 193, 4-(2-(2,5-Dichlorophenylthio)-5-nitrophenylsulfonyl)-N-p-tolylpiperazine-1-carboxamide], more than 5 µM. Still for that read-out and setting: with `N#Cc1ccc(NC(=O)N2CCN(S(=O)(=O)c3cc([N+](=O)[O-])ccc3Sc3cc(Cl)ccc3Cl)CC2)cc1` [Compound 194, N-(4-Cyanophenyl)-4-(2-(2,5-dichlorophenylthio)-5-nitrophenylsulfonyl)-piperazine-1-carboxamide] the figure was more than 5 µM; with `O=C(Nc1ccc([N+](=O)[O-])cc1)N1CCN(S(=O)(=O)c2cc([N+](=O)[O-])ccc2Sc2cc(Cl)ccc2Cl)CC1` [Compound 195, 4-(2-(2,5-Dichlorophenylthio)-5-nitrophenylsulfonyl)-N-(4-nitrophenyl)-piperazine-1-carboxamide], more than 5 µM; with `CCOC(=O)CCNC(=S)N1CCN(S(=O)(=O)c2cc([N+](=O)[O-])ccc2Sc2cc(Cl)ccc2Cl)CC1` [Compound 198], not above 0.05 µM. As to `CS(=O)(=O)N1CCN(S(=O)(=O)c2cc([N+](=O)[O-])ccc2Sc2cc(Cl)ccc2Cl)CC1` [Compound 202, 1-(2-(2,5-Dichlorophenylthio)-5-nitrophenylsulfonyl)-4-(methylsulfonyl)-piperazine], the melting point is 277 to 281 °C. For the same compound, in data set [1], the Ki was more than 5 µM.

In turn, `CN(C)S(=O)(=O)N1CCN(S(=O)(=O)c2cc([N+](=O)[O-])ccc2Sc2cc(Cl)ccc2Cl)CC1` [Compound 203, 4-(2-(2,5-Dichlorophenylthio)-5-nitrophenylsulfonyl)-N,N-dimethyl-piperazine-1-sulfonamide] had a melting point of 231 to 234 °C. For the same compound, the Ki in data set [1] is more than 5 µM. Taken in the same sequence, the figures for `O=[N+]([O-])c1ccc(Sc2cc(Cl)ccc2Cl)c(S(=O)(=O)N2CCN(S(=O)(=O)c3ccccc3)CC2)c1` [Compound 204, 1-(2-(2,5-Dichlorophenylthio)-5-nitrophenylsulfonyl)-4-(phenylsulfonyl)-piperazine] were 236 to 239 °C and more than 5 µM. The compound `O=[N+]([O-])c1ccc(Sc2cc(Cl)ccc2Cl)c(S(=O)(=O)N2CCN(S(=O)(=O)c3ccc(C(F)(F)F)cc3)CC2)c1` [Compound 205, 1-(2-(2,5-dichlorophenylthio)-5-nitrophenylsulfonyl)-4-(4-(trifluoromethyl)phenylsulfonyl)piperazine] returned a melting point of 264 to 267 °C. Besides, the Ki in data set [1] is more than 5 µM.

Source of the values: patent US8658642B2 (Axikin Pharmaceuticals, Inc., priority 2009, dated 2014).
